Experimental data taken from article PMC5940854, “Nitrothiophene carboxamides, a novel narrow spectrum antibacterial series: Mechanism of action and Efficacy” (Scientific Reports, 2018).
In brackets after ≈: the same amount, converted by molar mass. Read-outs that look alike come from different tables or passages of the source.

Experiments:
E. coli ∆tolC JW5503-1 = experiment: MIC, E. coli ∆tolC; type: cell-based; settings: for MIC tolC: E. coli ∆tolC; for MIC: Escherichia coli, read-out: MIC tolC
Description: (§1) The inoculum used for all the experiments is derived from a single seed lot that is maintained as glycerol stocks at −80 °C and are sub cultured on LB plate for isolated colonies. Single colony of each strain is grown in M9 medium. All test compound stocks and dilutions are prepared in DMSO. Serial two-fold dilutions of compounds are prepared separately, with the concentrations ranging from 2 mg/mL to 0.015 mg/mL. To 150 µl (3–7 × 10^5 CFU/ml) of bacterial culture in 96 well microtitre plates, 3 μL compound from each of the dilutions is added to respective wells to obtain final concentrations ranging from 40 µg/mL to 0.3 µg/mL of the test compounds. Media control, culture control and appropriate reference drug controls are included. […] Growth is monitored by checking absorbance at 600 nm (A600). […] The samples from MIC and above concentrations are plated for MBC (Minimum Bactericidal Concentration). The samples are diluted 1:10 and plated on LB agar plates. […] The killing kinetics is determined by enumerating survivors at various time points following compound exposure. E. coli cells (~10^7 CFU/ml; A600 of 0.1) are treated with various concentrations (40 µg/mL to 0.3 µg/mL) of compounds in a 96-well microtitre plate. At various time intervals (0 to 8 h), 30 μl volumes of treated cultures are serially diluted and plated on LB agar plates. […] Data is expressed as the log10 CFU for each drug treatment.

[1] = system: wild-type E. coli CGSC#7636 (BW25113); experiment: MIC, wild-type E. coli; type: cell-based; settings: for MIC WT: E. coli WT BW25113; for MIC: Escherichia coli
Description: as §1

E. coli ∆acrB JW0451-2 = experiment: MIC, E. coli ∆acrB; type: cell-based; settings: for MIC acrB: E. coli ∆acrB; for MIC: Escherichia coli, read-out: MIC acrB
Description: as §1

NfsA = biological target: T1, NfsA (Escherichia coli, UniProt P17117); experiment: Nitroreductase activity assay, NfsA; type: biochemical, E. coli
T1 construct: His-tag; made in house; host or cells: E. coli BL21(DE3), pET28a (pET-nfsA)
Description: (§2) Enzyme reducing each of the substrates are measured by monitoring the concomitant oxidation of NADPH by NfsA and NADH by NfsB in a fluorescence based assay. The reduction in fluorescence due to the NADH oxidation (excitation 350 nm, emission 460 nm) and NADPH oxidation (excitation 340 nm, emission 485 nm) is recorded using a TECAN Infinite M200Pro spectrophotometer, in half area solid black microtiter plates. This change in fluorescence directly corelates to the reduction of the nitro-compounds in the reaction. The NfsA assays is performed by initiating the reactions with 40 μM NADPH and 10 nM NfsA in 50 mM Tris-HCl (pH 7.4), 5 mM EDTA against 20 μM substrate (5 μl of compounds/substrate dissolved in 100% DMSO) in a total reaction volume of 100 μl at 25 °C. Similarly, the NfsB assay is also performed by initiating the reactions with 40 μM NADH and 70 nM NfsB in 50 mM Tris-HCl (pH 7.4), 5 mM EDTA against 20 μM substrate in a total reaction volume of 100 μl. […] All reactions are performed in replicates of two or more and the fluorescence measurements are made at 10 second intervals for 5–10 minutes.
(§3) Low solubility of the compounds/substrates under the NfsA and NfsB assay conditions precluded determination of their Km. […] The relative fluorescence units (RFU) obtained due to NADPH (excitation 340 nm, emission 485 nm) or NADH (excitation 350 nm, emission 460 nm) oxidation of the first 90 sec reaction is used to compute the slopes using linear regression analysis on GraphPad Prism. Appropriate blank reactions are included to account for background fluorescence/quenching from each of the components such as DMSO, the compound itself and auto-oxidation of NADPH or NADH. Activity of NfsB with a known substrate such as nitrofurantoin is used as a benchmark to plot the relative activities with all the test compounds.

E. coli ∆nfsA + ∆nfsB = experiment: microbe, parasite or virus in culture; type: cell-based
Description: (§4) To assess the biological relevance of the interacting protein and establish the link between nitroreductases to the antibacterial activity of NTC compounds, single (ΔnfsA or ΔnfsB) and double knockouts (ΔnfsA & ΔnfsB) of nitroreductases were generated by phage transduction using strains from the Keio collection.
as §1

E. coli ∆nfsA = experiment: microbe, parasite or virus in culture; type: cell-based; settings: Escherichia coli, read-out: MIC ∆nfsA
Description: as §4, §1

NfsB = biological target: T2, NfsB (Escherichia coli, UniProt P38489); experiment: Nitroreductase activity assay, NfsB; type: biochemical, E. coli
T2 construct: His-tag; made in house; host or cells: E. coli BL21(DE3), pET28a (pET-nfsB)
Description: as §2, §3

E. coli ∆nfsB = experiment: microbe, parasite or virus in culture; type: cell-based; settings: Escherichia coli, read-out: MIC ∆nfsB
Description: as §4, §1
The wild-type E. coli strain BW25113 and the entire Keio collection of knockouts[22] is maintained as glycerol stocks at −80 °C in 96-well deep well blocks. […] These are sub cultured in 150 µl of LB broth (Kanamycin 50 ug/ml, except for the wild-type strain) in 96 well microtiter plates and then adapted into M9 medium with 0.4% glucose. […] Cultures of single gene knockouts that show an altered MIC as compared to that of the wild type are scored as ‘Hits’.

[2] = BW25113, E. coli WT BW25113, read-out: MIC WT

T1 sequence (P17117 whole entry): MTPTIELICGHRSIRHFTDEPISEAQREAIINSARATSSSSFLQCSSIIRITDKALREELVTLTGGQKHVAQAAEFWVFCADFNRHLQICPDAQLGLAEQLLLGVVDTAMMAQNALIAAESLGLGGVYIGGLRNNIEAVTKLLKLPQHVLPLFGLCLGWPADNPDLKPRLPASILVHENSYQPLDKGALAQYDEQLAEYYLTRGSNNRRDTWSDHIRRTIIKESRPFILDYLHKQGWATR
T2 sequence (P38489 whole entry): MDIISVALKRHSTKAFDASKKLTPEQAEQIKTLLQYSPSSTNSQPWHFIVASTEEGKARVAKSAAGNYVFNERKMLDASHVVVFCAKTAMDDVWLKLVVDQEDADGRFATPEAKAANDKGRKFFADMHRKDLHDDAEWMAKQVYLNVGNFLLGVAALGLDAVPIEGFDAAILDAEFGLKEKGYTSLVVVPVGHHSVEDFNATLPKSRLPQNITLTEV

| Molecule | MIC (E. coli ∆tolC JW5503-1) [µg/mL] | MIC [1, 2] [µg/mL] | MIC (E. coli ∆acrB JW0451-2) [µg/mL] | further results |
| --- | --- | --- | --- | --- |
| 5-Nitro-N-(4-(6-(trifluoromethyl)pyridin-3-yl)thiazol-2-yl)thiophene-2-carboxamide [compound 17] |  |  |  | MIC tolC (E. coli ∆tolC JW5503-1): 10 µg/mL; MIC WT [1]: > 40 µg/mL; MIC acrB (E. coli ∆acrB JW0451-2): 10 µg/mL |
| Cc1sc(NC(=O)c2ccc([N+](=O)[O-])s2)nc1-c1ccc(F)cc1 [compound 9, N-(4-(4-Fluorophenyl)-5-methylthiazol-2-yl)-5-nitrothiophene-2-carboxamide] | 0.6 (≈ 1.65 µM) | > 40 | 0.6 (≈ 1.65 µM) |  |
| COc1cc(-c2csc(NC(=O)c3ccc([N+](=O)[O-])s3)n2)ccc1C(F)(F)F [compound 23, N-(4-(3-methoxy-4-(trifluoromethyl)phenyl)thiazol-2-yl)-5-nitrothiophene-2-carboxamide] | 1.25 (≈ 2.91 µM) | 2.5 (≈ 5.82 µM) | 2.5 (≈ 5.82 µM) |  |
| O=C(Nc1nc(-c2cc(F)cc(F)c2)cs1)c1ccc([N+](=O)[O-])s1 [compound 24, N-(4-(3,5-difluorophenyl)thiazol-2-yl)-5-nitrothiophene-2-carboxamide] | 0.3 (≈ 0.817 µM) | > 20 | 0.3 (≈ 0.817 µM) |  |
| O=C(Nc1nc(-c2ccc(F)c(F)c2)cs1)c1ccc([N+](=O)[O-])s1 [compound 11, N-(4-(3,4-Difluorophenyl)thiazol-2-yl)-5-nitrothiophene-2-carboxamide] | 0.15 (≈ 0.408 µM) | 0.6 (≈ 1.63 µM) | 0.3 (≈ 0.817 µM) |  |
| CCOc1cc(-c2csc(NC(=O)c3ccc([N+](=O)[O-])s3)n2)ccc1Cl [compound 22, N-(4-(4-chloro-3-ethoxyphenyl)thiazol-2-yl)-5-nitrothiophene-2-carboxamide] | 0.6 (≈ 1.46 µM) |  | 1.25 (≈ 3.05 µM) | MIC ([1]; BW25113, read-out: MIC WT): 1.25 µg/mL (≈ 3.05 µM) |
| CN(C)Cc1sc(NC(=O)c2ccc([N+](=O)[O-])s2)nc1-c1ccc(F)cc1 [compound 10, N-(5-((dimethylamino)methyl)-4-(4-fluorophenyl)thiazol-2-yl)-5-nitro thiophene-2-carboxamide] | 2.5 (≈ 6.15 µM) | > 40 | 2.5 (≈ 6.15 µM) | fold change of MIC in ∆tolC (E. coli ∆tolC JW5503-1; compared to 9): four fold |
| N#Cc1ccc(-c2csc(NC(=O)c3ccc([N+](=O)[O-])s3)n2)cc1 [compound 14, N-(4-(4-cyanophenyl)thiazol-2-yl)-5-nitrothiophene-2-carboxamide] | 20 (≈ 56.1 µM) | > 40 | 20 (≈ 56.1 µM) | NfsA activity (rate of compound conversion) (NfsA; 20 μM compound, 40 μM NADPH, 10 nM NfsA, slope of initial velocity): 0.20 µM/min; conversion by NfsA (in words) (NfsA; biochemical assay): not converted; MIC (E. coli ∆nfsA + ∆nfsB; Escherichia coli, read-out: MIC ∆nfsA + ∆nfsB): > 40 µg/mL; antibacterial activity in double knockout (in words) (E. coli ∆nfsA + ∆nfsB; ΔnfsA and ΔnfsB double knockout strain): inactive; MIC (E. coli ∆nfsA): > 40 µg/mL; fold loss in MIC against ∆tolC (E. coli ∆tolC JW5503-1; compared to compound 12): > 100 fold; NfsB activity (rate of compound conversion) (NfsB; 20 μM compound, 40 μM NADH, 70 nM NfsB, slope of initial velocity): 1.31 µM/min; conversion by NfsB (in words) (NfsB; biochemical assay): not converted; MIC WT [1]: >40 µg/mL; MIC (E. coli ∆nfsB): > 40 µg/mL |
| COc1cc(-c2csc(NC(=O)c3ccc([N+](=O)[O-])s3)n2)ccc1F [compound 19, N-(4-(4-fluoro-3-methoxyphenyl)thiazol-2-yl)-5-nitrothiophene-2-carboxamide] | 0.6 (≈ 1.58 µM) | 1.25 (≈ 3.29 µM) | 0.3 (≈ 0.791 µM) |  |
| O=C(Nc1nc(-c2ccc(Cl)c(F)c2)cs1)c1ccc([N+](=O)[O-])s1 [compound 21, N-(4-(4-Chloro-3-fluorophenyl)thiazol-2-yl)-5-nitrothiophene-2-carboxamide] | 2.5 (≈ 6.51 µM) |  | 1.25 (≈ 3.26 µM) | MIC ([1]; BW25113, read-out: MIC WT): 1.25 µg/mL (≈ 3.26 µM) |
| O=C(Nc1nc(-c2ccc(OC(F)(F)F)cc2)cs1)c1ccc([N+](=O)[O-])s1 [compound 16, 5-Nitro-N-(4-(4-(trifluoromethoxy)phenyl)thiazol-2-yl)thiophene-2-carboxamide] | 0.3 (≈ 0.722 µM) | 5 (≈ 12 µM) | 1.25 (≈ 3.01 µM) |  |
| Cc1cc(F)ccc1-c1csc(NC(=O)c2ccc([N+](=O)[O-])s2)n1 [compound 18, N-(4-(4-fluoro-2-methylphenyl)thiazol-2-yl)-5-nitrothiophene-2-carboxamide] | 0.3 (≈ 0.826 µM) | 2.5 (≈ 6.88 µM) | 0.6 (≈ 1.65 µM) |  |
| N-(4-(3-Fluoro-4-methylphenyl)thiazol-2-yl)-5-nitrothiophene-2-carboxamide [compound 13] |  |  |  | MIC tolC (E. coli ∆tolC JW5503-1): 0.3 µg/mL; MIC WT [1]: 1.25 µg/mL; MIC acrB (E. coli ∆acrB JW0451-2): 0.3 µg/mL |
| Cc1sc(NC(=O)c2ccc(C(F)(F)F)s2)nc1-c1ccccc1 [compound 8, N-(5-Methyl-4-phenylthiazol-2-yl)-5-(trifluoromethyl) thiophene-2-carboxamide] | > 40 | > 40 | > 40 |  |
